According to ChEMBL document CHEMBL5576064, “Development of carbonic anhydrase IX-targeting molecular-targeted photodynamic therapy” (Bioorg Med Chem Lett, 2024):
Calls of active or inactive are those of the source. No cut-off for these calls is given here.

Key:
A549 [1] = assay: Photodynamic antitumor activity against human A549 cells assessed as inhibition of cell growth at 0.001 to 30 uM incubated for 60 mins followed by compound washout and light irradiation measured after 72 hrs by MTT assay; format: functional, cell-based; conditions: dose 0.001-30 µM
[2] = target: Carbonic anhydrase 9 (Homo sapiens) (UniProt Q16790); assay: Inhibition of carbonic anhydrase IX in human U87 cells assessed as downregulation of CAIX expression at 1 uM incubated for 60 mins by Western blotting analysis; format: cell-based
U-87 MG [3] = assay: Photodynamic antitumor activity against human U87 cells assessed as inhibition of cell growth at 1 uM incubated for 60 mins followed by compound washout and addition of ROS scavenger NaN3 and light irradiation measured after 72 hrs by MTT assay; format: functional, cell-based; conditions: U-87MG ATCC
[4] = Toxicity in mouse implanted with mouse 4T1 cells assessed as change in body weight at 5 mg/kg,TOP administration measured after 12 days; format: organism-based; conditions: in vivo, topical_or_ocular, 288 h, time 12 day
4T1 [5] = assay: Photodynamic antitumor activity against mouse 4T1 cells implanted mouse model assessed as reduction in tumor growth at 5 mg/kg,TOP administration followed by light irradiation measured after 12 days; format: functional, organism-based; conditions: time 12.0 day
U-87 MG [6] = assay: Photodynamic antitumor activity against human U87 cells assessed as inhibition of cell growth at 1 uM incubated for 60 mins followed by compound washout and addition of ROS scavenger Tiron and light irradiation measured after 72 hrs by MTT assay; format: functional, cell-based; conditions: U-87MG ATCC
U-87 MG [7] = assay: Photodynamic antitumor activity against human U87 cells assessed as increase in ATP release incubated for 1 hr followed by compound washout and 540 nm light irradiation measured upto 10 mins by luciferase assay; format: functional, cell-based; conditions: U-87MG ATCC
[8] = target: Carbonic anhydrase 9 (Homo sapiens) (UniProt Q16790); assay: Inhibition of carbonic anhydrase IX in human U87 cells assessed as downregulation of CAIX expression at 1 uM incubated for 60 mins followed by compound washout and 540 nm light irradiation measured after 15 mins by Western blotting analysis; format: cell-based
4T1 [9] = assay: Photodynamic antitumor activity against mouse 4T1 cells implanted mouse model assessed as increase in tumor necrosis at 5 mg/kg,TOP administration followed by light irradiation measured after 12 days; format: functional, organism-based; conditions: time 12.0 day
U-87 MG [10] = assay: Photodynamic antitumor activity against human U87 cells assessed as inhibition of cell growth at 0.001 to 30 uM incubated for 60 mins followed by compound washout and light irradiation measured after 72 hrs by MTT assay; format: functional, cell-based; conditions: U-87MG ATCC, dose 0.001-30 µM
4T1 [11] = assay: Photodynamic antitumor activity against mouse 4T1 cells implanted mouse model assessed as increase in tumor degeneration at 5 mg/kg,TOP administration followed by light irradiation measured after 12 days; format: functional, organism-based; conditions: time 12.0 day
U-87 MG [12] = assay: Photodynamic antitumor activity against human U87 cells assessed as inhibition of cell growth incubated for 60 mins followed by compound washout and light irradiation measured after 72 hrs by MTT assay; format: functional, cell-based, U-87MG ATCC; conditions: light or radiation study
[13] = Toxicity in mouse implanted with mouse 4T1 cells assessed as change in body weight at 5 mg/kg,TOP administration followed by light irradiation measured after 12 days; format: organism-based; conditions: in vivo, topical_or_ocular, 288 h, time 12 day
4T1 [14] = assay: Photodynamic antitumor activity against mouse 4T1 cells implanted mouse model assessed as reduction in tumor growth at 5 mg/kg,TOP administration measured after 12 days; format: functional, organism-based; conditions: time 12.0 day
U-87 MG [15] = assay: Photodynamic antitumor activity against human U87 cells assessed as inhibition of cell growth at 1 uM incubated for 60 mins followed by compound washout and addition of ROS scavenger NaP and light irradiation measured after 72 hrs by MTT assay; format: functional, cell-based; conditions: U-87MG ATCC
U-87 MG [16] = assay: Photodynamic antitumor activity against human U87 cells assessed as inhibition of cell growth at 1 uM incubated for 60 mins followed by compound washout and addition of ROS scavenger NaN3 upto 30 uM and light irradiation measured after 72 hrs by MTT assay; format: functional, cell-based; conditions: U-87MG ATCC
[17] = target: Carbonic anhydrase 9 (Homo sapiens) (UniProt Q16790); assay: Inhibition of carbonic anhydrase IX in human U87 cells assessed as downregulation of CAIX expression at 1 uM incubated for 60 mins followed by compound washout and 540 nm light irradiation measured after 15 mins by Hoechst 33342 staining based immunostaining analysis; format: cell-based
U-87 MG [18] = assay: Photodynamic antitumor activity against human U87 cells assessed as inhibition of cell growth at 1 uM incubated for 60 mins followed by compound washout and addition of ROS scavenger D-mannitol and light irradiation measured after 72 hrs by MTT assay; format: functional, cell-based; conditions: U-87MG ATCC
U-87 MG [19] = assay: Photodynamic antitumor activity against human U87 cells assessed as inhibition of cell growth at 1 uM incubated for 60 mins followed by compound washout and addition of ROS scavenger Trolox and light irradiation measured after 72 hrs by MTT assay; format: functional, cell-based; conditions: U-87MG ATCC
A549 [20] = assay: Photodynamic antitumor activity against human A549 cells assessed as inhibition of cell growth incubated for 60 mins followed by compound washout and light irradiation measured after 72 hrs by MTT assay; format: functional, cell-based; conditions: A549, light or radiation study
A549 [21] = assay: Antitumor activity against human A549 cells assessed as inhibition of cell growth at 0.001 to 30 uM incubated for 60 mins by MTT assay; format: functional, cell-based; conditions: dose 0.001-30 µM
[22] = target: Carbonic anhydrase 9 (Homo sapiens) (UniProt Q16790); assay: Inhibition of carbonic anhydrase IX in human A549 cells assessed as downregulation of CAIX expression at 1 uM incubated for 60 mins by Western blotting analysis; format: cell-based
U-87 MG [23] = assay: Antitumor activity against human U87 cells assessed as inhibition of cell growth at 0.001 to 30 uM incubated for 60 mins by MTT assay; format: functional, cell-based; conditions: U-87MG ATCC, dose 0.001-30 µM
[24] = target: Carbonic anhydrase 9 (Homo sapiens) (UniProt Q16790); assay: Inhibition of carbonic anhydrase IX in human A549 cells assessed as downregulation of CAIX expression at 1 uM incubated for 60 mins followed by compound washout and 540 nm light irradiation measured after 15 mins by Western blotting analysis; format: cell-based
[25] = target: Carbonic anhydrase 9 (Homo sapiens) (UniProt Q16790); assay: Inhibition of carbonic anhydrase IX in human U87 cells assessed as nuclear localization of CAIX at 1 uM incubated for 60 mins followed by compound washout and 540 nm light irradiation measured after 15 mins by Hoechst 33342 staining based immunostaining analysis; format: cell-based

inhibition [2] | inhibition [8] | IC50 (U-87 MG [12]) [nM] | IC50 (A549 [20]) [nM] | inhibition [22] | inhibition [24] | Structure (SMILES) | Activity (A549 [1]) | Activity (U-87 MG [10]) | Activity (A549 [21]) | Activity (U-87 MG [23]) | further results
inactive | Active | 50 | 200 | inactive | Active | Cc1c(I)c(C)n2c1C=C1C=C(I)C(CCC(=O)NCCCCCCNC(=O)c3ccc(S(N)(=O)=O)cc3)=[N+]1[B-]2(F)F | Dose-Dependent Effect | Dose-Dependent Effect | inactive | inactive | Activity (U-87 MG [3]): inactive; Activity [4]: Non-Toxic; Activity (4T1 [5]): Active; Activity (U-87 MG [6]): Active; Activity (U-87 MG [7]): Active; Activity (4T1 [9]): Active; Activity (4T1 [11]): Active; Activity [13]: Non-Toxic; Activity (4T1 [14]): inactive; Activity (U-87 MG [15]): Active; Activity (U-87 MG [16]): inactive; inhibition [17]: Active; Activity (U-87 MG [18]): Active; Activity (U-87 MG [19]): Active; inhibition [25]: Active
inactive | Active | 300 | 400 | inactive | Active | Cc1c(Br)c(C)n2c1C=C1C=C(Br)C(CCC(=O)NCCCCCCNC(=O)c3ccc(S(N)(=O)=O)cc3)=[N+]1[B-]2(F)F | Dose-Dependent Effect | Dose-Dependent Effect | inactive | inactive | –
– | – | 18900 | 21300 | – | – | Cc1cc(C)n2c1C=C1C=CC(CCC(=O)NCCCCCCNC(=O)c3ccc(S(N)(=O)=O)cc3)=[N+]1[B-]2(F)F | – | – | – | – | –
